This passage reports Anti-tumour effect and Mechanism of action results from patent US9730906B2, “α-derivatives of cis-monounsaturated fatty acids for use as medicines” (UNIVERSITAT DE LES ILLES BALEARS, priority 2008, dated 2017).

Holding throughout (test): Effect of OHOD on cancer cells in culture (Table 2)
Common to all, as to assay type: cell-based, human

One experiment relates to Jurkat. Also noted: key to Anti-tumour effect: + [inhibition of growth]; ++ [total halt of growth]; +++ [total removal of tumour cells]; key to Mechanism of action: P [anti-proliferative]; D [differentiation]; A [apoptosis]. Particulars: Lym-Leukaemia. As for the experimental part: (§1) Also, a series of α-derivatives of cis-monounsaturated fatty acids were used to investigate their effectiveness in cancer treatment. Two types of experiment were performed. Firstly, the dependency of the anti-tumour effect on concentration was investigated. To perform these experiments, human lung cancer cells (A549) were cultivated in RPMI medium, supplemented with 10% foetal bovine […], 10 mM Hepes (pH 7.4), 2 mM glutamine, 2 g/l bicarbonate, 1 g/l glucose, 100 units/ml penicillin, 0.1 mg/ml streptomycin, 0.25 μg/ml Amphotericin B, at 37° C. and in the presence of 5% CO2. In a first experimental series, these cells were treated with various concentrations (0-400 μM) of OHOD and MOD11 and the number of cells was determined by flow cytometry (FIG. 3A). […] In a second series, the anti-tumour effectiveness on A549 lung cancer cells was investigated at a single concentration (150 μM) and a time of 48 hours (FIG. 3B). […] Obviously, among the previous molecules, some lacked both modifications on the α-carbon and the double bond in cis configuration (EO, HDO, ODO) and had no therapeutic effect.
(§2) In a second experimental series, designed to discover whether these molecules are effective in treatment of different types of tumours, the effect of OHOD at various concentrations on human cells of different types of cancer was studied. These experiments were performed as described before, except that the M220 and HT-29 cell lines were cultured in DMEM medium and the MDA-MB-231 line was incubated in Leibowitz L-15 medium supplemented with 15% foetal bovine […]. […] Where the nature of the tumour process requires, application can be topical (use on the skin of active products for the treatment of melanoma and other cutaneous abnormalities of cancerous nature), which can be considered as cosmetic treatments when attempts are made to correct aesthetic defects.

Another experiment deals with L-1210. Also noted: key to Anti-tumour effect: + [inhibition of growth]; ++ [total halt of growth]; +++ [total removal of tumour cells]; key to Mechanism of action: P [anti-proliferative]; D [differentiation]; A [apoptosis]. Particulars: L-1210, Lym-Leukaemia. As for the experimental part: as §1, §2
Another experiment deals with HeLa. Also noted: key to Anti-tumour effect: + [inhibition of growth]; ++ [total halt of growth]; +++ [total removal of tumour cells]; key to Mechanism of action: P [anti-proliferative]; D [differentiation]; A [apoptosis]. As to conditions: Cervix. Here is the method: as §1, §2
A further experiment has as its system SH-SY5Y. Also noted: key to Anti-tumour effect: + [inhibition of growth]; ++ [total halt of growth]; +++ [total removal of tumour cells]; key to Mechanism of action: P [anti-proliferative]; D [differentiation]; A [apoptosis]. Particulars: Neuroblastoma. As for the experimental part: as §1, §2
The test system of the next experiment is T98G. The arrangement: key to Anti-tumour effect: + [inhibition of growth]; ++ [total halt of growth]; +++ [total removal of tumour cells]; key to Mechanism of action: P [anti-proliferative]; D [differentiation]; A [apoptosis]. Particulars: Glioma. Here is the method: as §1, §2
Another experiment relates to MDA-MB-231. Also noted: key to Anti-tumour effect: + [inhibition of growth]; ++ [total halt of growth]; +++ [total removal of tumour cells]; key to Mechanism of action: P [anti-proliferative]; D [differentiation]; A [apoptosis]. Particulars: MDA-MB-231, Breast. Here is the method:
as §1, §2

The test system of the next experiment is NCI-H460. The arrangement: key: + [inhibition of growth]; ++ [total halt of growth]; +++ [total removal of tumour cells]. As to conditions: NCI-H460, Lung (CPNM). As for the experimental part:
as §1, §2

The test system of a further experiment is MCF7. The arrangement: key: + [inhibition of growth]; ++ [total halt of growth]; +++ [total removal of tumour cells]. Particulars: MCF7, Breast. Here is the method: as §1, §2
The subject of another experiment is SF-268. The arrangement: key: + [inhibition of growth]; ++ [total halt of growth]; +++ [total removal of tumour cells]. As to conditions: SF-268, Glioma. Here is the method:
as §1, §2

The next experiment deals with HL-60. The arrangement: key to Anti-tumour effect: + [inhibition of growth]; ++ [total halt of growth]; +++ [total removal of tumour cells]. Particulars: HL-60, Myel-Leukaemia. As for the experimental part:
as §1, §2

The test system of another experiment is PC3. Also noted: key to Anti-tumour effect: + [inhibition of growth]; ++ [total halt of growth]; +++ [total removal of tumour cells]. Particulars: PC3, Prostate. Here is the method: as §1, §2
The next experiment has as its system C-6. The arrangement: key to Anti-tumour effect: + [inhibition of growth]; ++ [total halt of growth]; +++ [total removal of tumour cells]. Particulars: C-6, Glio-Brain. As for the experimental part: as §1, §2

Regarding `CCCCCCCC/C=C\CCCCCCC(O)C(=O)O` (stereo not drawn) [OHOD, α-Hydroxy-cis-Δ9-octadecenoic], the Anti-tumour effect result in the experiment on Jurkat is “+++”; in the experiment on L-1210, “+++”; in the experiment on HeLa, “+++”; in the experiment on SH-SY5Y it was “+”; with T98G it was “+++”; with MDA-MB-231 it was “++”. Also, the Anti-tumour effect entry in the experiment with NCI-H460, in the experiment with MCF7, in the experiment with SF-268, with HL-60, with PC3 and in the experiment with C-6 was “+++” each time. Besides, the Mechanism of action entry in the experiment on Jurkat is “A”; with L-1210, “A”; in the experiment on HeLa, “A”; in the experiment with SH-SY5Y, “P”; with T98G it was “D”; in the experiment with MDA-MB-231, “A”. For the same compound, the Mechanism of action entry is reported as “P D A” in the experiment with HL-60, “P A” with PC3 and “P D” with C-6.
